Test results published in US20240270741A1 (Cogent Biosciences, Inc., priority 2023, published 2024).

What follows are molecules tested against FGFR2 (Homo sapiens, UniProt P21802) (assay: FGFR wild type enzyme assay (HTRF KinEASE-TK), FGFR2). Conditions: Enz FGFR2 (nM), FGFR2 wild type enzyme.
FGFR2, sequence (P21802 399-821 limits assumed): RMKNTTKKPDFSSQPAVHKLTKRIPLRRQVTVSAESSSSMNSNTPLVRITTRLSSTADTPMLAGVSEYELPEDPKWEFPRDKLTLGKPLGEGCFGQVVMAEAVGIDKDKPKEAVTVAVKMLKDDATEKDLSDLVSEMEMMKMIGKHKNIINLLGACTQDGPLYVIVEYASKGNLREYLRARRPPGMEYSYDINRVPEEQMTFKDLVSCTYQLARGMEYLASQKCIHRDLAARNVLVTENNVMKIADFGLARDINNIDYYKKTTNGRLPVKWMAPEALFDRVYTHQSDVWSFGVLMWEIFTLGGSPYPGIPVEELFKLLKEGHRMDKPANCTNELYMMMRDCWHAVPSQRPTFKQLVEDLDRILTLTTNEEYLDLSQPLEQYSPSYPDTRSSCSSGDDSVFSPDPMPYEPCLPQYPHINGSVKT
Experimental: Activity against FGFR wild type and mutant enzymes were determined in biochemical assays using purified intracellular domains of the respective isoforms using HTRF KinEASE-TK assay technology from CisBio, now PerkinElmer. (Catalogue number 62TK0PEC). Briefly test compounds were tested in 11 point 1:3 serial dilutions, typical final concentration ranges from 10,000 nM to 0.17 nM. Test compounds were dissolved in DMSO and added to assay plates using acoustic transfer. Enzyme was pre-incubated with test compound for 30 minutes and the assay was initiated by addition of ATP and TK-peptide substrate. After 60 minutes at room temperature the reaction was quenched with detection reagent and incubated for an additional 60 minutes at room temperature. The plates were read using a multimode reader and the emission ratio of 665 nm to 615 nm was determined. This ratio was converted to percent of control (POC). [1-(high control-sample signal)/(high control-low control)]*100. Wells without compound were used to determine high control values and wells without enzyme were used to determine low control values. The POC values were fit using a four-parameter logistic model and the value where the fit curve was equal to 50 POC was reported as the IC50 using the Signals Vitro Vivo software package (PerkinElmer). Final assay conditions were: 50 mM HEPES pH7.5, 10 mM MgCl2, 1 mM EDTA, 0.01% Brij-35, 2 mM MnCl2, 1 mM DTT, and 0.5 uM TK-peptide.

SMILES	IC50
CCN(C)[C@H]1CC[C@@H](n2ncc(-c3cc(Sc4ccccc4C#N)c4c(C#N)cnn4c3)c2C)CC1 [Example 256, 4-((2-cyanophenyl)thio)-6-(1-((1s,4s)-4-(ethyl(methyl)amino)cyclo-hexyl)-5-methyl-1H-pyrazol-4-yl)pyrazolo[1,5-a]pyridine-3-carbonitrile]	1 nM
Cc1c(-c2cc(Sc3ccccc3C#N)c3c(C#N)cnn3c2)cnn1[C@H]1CC[C@@H](NCC2(C)CC2)CC1 [Example 257, 4-((2-cyanophenyl)thio)-6-(5-methyl-1-((1s,4s)-4-(((1-methylcyclopropyl)methyl)amino)cyclohexyl)-1H-pyrazol-4-yl)pyrazolo[1,5-a]pyridine-3-carbonitrile]	0.5 nM
N#Cc1ccccc1Sc1cc(-c2cnn(CC(F)(F)F)c2)cn2ncc(C#N)c12 [Example 258]	2 nM
CC(=O)N1C[C@H]2C[C@@H](n3ncc(-c4cc(Sc5ncccc5F)c5c(C#N)cnn5c4)c3C)C[C@H]2C1 [Example 259, 6-(1-((3aR,5r,6aS)-2-acetyloctahydrocyclopenta [c]pyrrol-5-yl)-5-methyl-1H-pyrazol-4-yl)-4-((3-fluoropyridin-2-yl)thio)pyrazolo[1,5-a]pyridine-3-carbonitrile]	1.5 nM
Cc1c(-c2cc(Sc3ccccc3C#N)c3c(C#N)cnn3c2)cnn1[C@H]1CC[C@@](C)(O)CC1 [Example 260, 4-(2-cyanophenyl)sulfanyl-6-[1-(4-hydroxy-4-methyl-cyclohexyl)-5-methyl-pyrazol-4-yl]pyrazolo[1,5-a]pyridine-3-carbonitrile]	1 nM
Cc1c(-c2cc(Sc3ccccc3C#N)c3c(C#N)cnn3c2)cnn1[C@H]1CC[C@](C)(O)CC1 [Example 261, 4-((2-cyanophenyl)thio)-6-(1-((1r,4r)-4-hydroxy-4-methylcyclohexyl)-5-methyl-1H-pyrazol-4-yl)pyrazolo[1,5-a]pyridine-3-carbonitrile]	0.5 nM
CC(=O)N1[C@@H]2CC[C@H]1C[C@@H](n1ncc(-c3cc(Sc4ncccc4F)c4c(C#N)cnn4c3)c1C)C2 [Example 262, 6-(1-((1R,3r,5S)-8-acetyl-8-azabicyclo[3.2.1]octan-3-yl)-5-methyl-1H-pyrazol-4-yl)-4-((3-fluoropyridin-2-yl)thio)pyrazolo[1,5-a]pyridine-3-carbonitrile]	3 nM
CC(=O)N1[C@@H]2CC[C@H]1C[C@H](n1ncc(-c3cc(Sc4ncccc4F)c4c(C#N)cnn4c3)c1C)C2 [Example 263, 6-(1-((1R,3s,5S)-8-acetyl-8-azabicyclo[3.2.1]octan-3-yl)-5-methyl-1H-pyrazol-4-yl)-4-((3-fluoropyridin-2-yl)thio)pyrazolo[1,5-a]pyridine-3-carbonitrile]	3 nM
Cc1c(-c2cc(Sc3ccccc3C#N)c3c(C#N)cnn3c2)cnn1[C@H]1C[C@H]2CC[C@@H](C1)N2C [Example 264, 4-((2-cyanophenyl)thio)-6-(5-methyl-1-((1R,3r,5S)-8-methyl-8-azabicyclo[3.2.1]octan-3-yl)-1H-pyrazol-4-yl)pyrazolo[1,5-a]pyridine-3-carbonitrile]	1 nM
Cc1c(-c2cc(Sc3ccccc3C#N)c3c(C#N)cnn3c2)cnn1[C@@H]1C[C@H]2CC[C@@H](C1)N2C [Example 265, 4-((2-cyanophenyl)thio)-6-(5-methyl-1-((1R,3s,5S)-8-methyl-8-azabicyclo[3.2.1]octan-3-yl)-1H-pyrazol-4-yl)pyrazolo[1,5-a]pyridine-3-carbonitrile]	0.4 nM
Cc1c(-c2cc(Sc3ccccc3C#N)c3c(C#N)cnn3c2)cnn1C1CCN(CC(=O)N(C)C)CC1 [Example 266, 2-(4-(4-(3-cyano-4-((2-cyanophenyl)thio)pyrazolo [1,5-a]pyridin-6-yl)-5-methyl-1H-pyrazol-1-yl)piperidin-1-yl)-N,N-dimethylacetamide]	0.5 nM
